Experimental data published in US12371454B2, “Cyclic peptide compound having Kras inhibitory action” (priority 2019, dated 2025).
Positions of bridges follow the written chain, without caps; N, C: chain ends. Non-standard residues stand in square brackets, D forms with d. Residues, ends and D or L forms follow the SMILES beside them. *: point of attachment. hPhe(3-Cl-4-CF3) = N[C@@H](CCc1ccc(C(F)(F)F)c(Cl)c1)C(=O)O; NMePhe(4-CF3) = CN[C@@H](Cc1ccc(C(F)(F)F)cc1)C(=O)O; hPhe(4-CF3) = N[C@@H](CCc1ccc(C(F)(F)F)cc1)C(=O)O; 3Oxa8azabicyclo(3.2.1)octane = C1CC2COCC1N2*; NMePhe(4-Cl) = CN[C@@H](Cc1ccc(Cl)cc1)C(=O)O; NMePhe(2-Cl) = CN[C@@H](Cc1ccccc1Cl)C(=O)O; NMePhe(4-F) = CN[C@@H](Cc1ccc(F)cc1)C(=O)O; NMeGly(cPent) = CN[C@H](C(=O)O)C1CCCC1; NMeCha = CN[C@@H](CC1CCCCC1)C(=O)O; NMeChg = CN[C@H](C(=O)O)C1CCCCC1; NMeF = CN[C@@H](Cc1ccccc1)C(=O)O; NMeI = CC[C@H](C)[C@H](NC)C(=O)O; Cha = N[C@@H](CC1CCCCC1)C(=O)O; Gly(cPr) = N[C@H](C(=O)O)C1CC1; NMeD = CN[C@@H](CC(=O)O)C(=O)O; NMeL = CN[C@@H](CC(C)C)C(=O)O; NMeV = CN[C@H](C(=O)O)C(C)C; d(β3hA) = C[C@@H](N)CC(=O)O; NMeA = CN[C@@H](C)C(=O)O; Piperidide = C1CCN(*)CC1; Pyrrolidide = C1CCN(*)C1; dNMeA = CN[C@H](C)C(=O)O; Ac5c = NC1(C(=O)O)CCCC1; Aze = O=C(O)[C@@H]1CCN1; NcPrGly = O=C(O)CNC1CC1; βAla = NCCC(=O)O; Sar = CNCC(=O)O

What follows are compounds tested against T1, Kras and SOS1 (biotin-tagged human Kras loaded with GDP, His-tagged human SOS1) (Homo sapiens, UniProt P01116, G12D) (assay: Protein-protein interaction inhibition between Kras and SOS1 (KrasGl2D-SOS PPI) using AlphaScreen). Details: AlphaScreen; biotin-tagged human Kras loaded with GDP, His-tagged human SOS1; read-out: KRAS G12D-SOS PPI IC50.
T1 construct: made in house; host or cells: E. coli (stated for Kras only)
T1 sequence (P01116 1-188 isoform P01116-2 G12D): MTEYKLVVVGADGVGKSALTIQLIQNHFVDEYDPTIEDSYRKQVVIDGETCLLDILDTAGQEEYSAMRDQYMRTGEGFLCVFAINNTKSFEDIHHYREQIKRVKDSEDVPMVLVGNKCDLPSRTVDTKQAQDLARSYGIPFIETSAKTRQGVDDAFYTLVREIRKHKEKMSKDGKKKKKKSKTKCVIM
Assay type: binding
Outline: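 Binding between SOS1 and Kras is detected as bead-proximity luminescence: illuminate Ni-conjugated donors (680 nm), collect 520-620 nm emission from streptavidin-conjugated acceptors; Kras carries biotin and GDP loaded after purification, SOS1 carries a His tag.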

| SMILES | IC50 [nM] |
| --- | --- |
| CC[C@H](C)[C@@H]1NC(=O)[C@H](CC(C)C)N(C)C(=O)C[C@@H](C(=O)N2CCCCC2)N(C)C(=O)[C@H](C2CCCCC2)N(C)C(=O)C2(CCCC2)NC(=O)[C@H](Cc2ccccc2)N(C)C(=O)[C@H](CCc2ccc(C(F)(F)F)c(Cl)c2)NC(=O)CN(C)C(=O)[C@H](CC2CCCCC2)N(C)C(=O)[C@@H]2CCN2C(=O)CN(C)C1=O [Compound 527] ([NMeL]I[Sar][Aze][NMeCha][Sar][hPhe(3-Cl-4-CF3)][NMeF][Ac5c][NMeChg][NMeD]-Piperidide; lactam N-11) | 38 |
| CC[C@H](C)[C@@H]1NC(=O)CCNC(=O)[C@H](Cc2ccc(F)cc2)N(C)C(=O)[C@H](C2CCCCC2)N(C)C(=O)C2(CCCC2)NC(=O)[C@@H]2CCCN2C(=O)[C@H](CCc2ccc(C(F)(F)F)c(Cl)c2)NC(=O)CN(C)C(=O)[C@H](CC2CCCCC2)N(C)C(=O)CN(C)C(=O)CN(C)C1=O [Compound 528] (cyclo([Ac5c][NMeChg][NMePhe(4-F)][βAla]I[Sar][Sar][NMeCha][Sar][hPhe(3-Cl-4-CF3)]P)) | 20 |
| CC(C)C[C@H]1C(=O)N[C@@H](C2CC2)C(=O)N(C)CC(=O)N(C)CC(=O)N(C)[C@@H](CC2CCCCC2)C(=O)N(C)CC(=O)N[C@@H](CCc2ccc(C(F)(F)F)c(Cl)c2)C(=O)N2CCC[C@H]2C(=O)NC2(CCCC2)C(=O)N(C)[C@@H](C(C)C)C(=O)N(C)[C@H](C(=O)N2CCCCC2)CC(=O)N1C [Compound 533] ([NMeL][Gly(cPr)][Sar][Sar][NMeCha][Sar][hPhe(3-Cl-4-CF3)]P[Ac5c][NMeV][NMeD]-Piperidide; lactam N-11) | 8.5 |
| CC[C@H](C)[C@@H]1NC(=O)[C@H](C)N(C)C(=O)C[C@@H](C(=O)N2CCCC2)NC(=O)[C@H](CC(C)C)N(C)C(=O)[C@H](CC2CCCCC2)N(C)C(=O)[C@H](CC(C)C)NC(=O)[C@H](CCc2ccc(C(F)(F)F)cc2)NC(=O)CN(C)C(=O)[C@H](Cc2ccc(Cl)cc2)N(C)C(=O)CN(C)C(=O)CN(C)C1=O [Compound 536] ([NMeA]I[Sar][Sar][NMePhe(4-Cl)][Sar][hPhe(4-CF3)]L[NMeCha][NMeL]D-Pyrrolidide; lactam N-11) | 230 |
| CC(C)C[C@H]1C(=O)N[C@@H](CC2CCCCC2)C(=O)N(C)CC(=O)N(C)CC(=O)N(C)[C@@H](CC2CCCCC2)C(=O)N(C)CC(=O)N[C@@H](CCc2ccc(C(F)(F)F)c(Cl)c2)C(=O)N2CCC[C@H]2C(=O)NC2(CCCC2)C(=O)N(C)[C@@H](C(C)C)C(=O)N[C@H](C)CC(=O)N1C [Compound 537] (cyclo([Ac5c][NMeV][d(β3hA)][NMeL][Cha][Sar][Sar][NMeCha][Sar][hPhe(3-Cl-4-CF3)]P)) | 82 |
| CC[C@H](C)[C@@H]1NC(=O)[C@H](C(C)C)N(C)C(=O)C[C@@H](C)NC(=O)[C@H](CC(C)C)N(C)C(=O)C2(CCCC2)NC(=O)[C@H](CC(C)C)N(C)C(=O)[C@H](CCc2ccc(C(F)(F)F)cc2)NC(=O)CN(C)C(=O)[C@H](Cc2ccc(Cl)cc2)N(C)C(=O)CN(C)C(=O)[C@@H]2CCN2C1=O [Compound 538] (cyclo([Ac5c][NMeL][d(β3hA)][NMeV]I[Aze][Sar][NMePhe(4-Cl)][Sar][hPhe(4-CF3)][NMeL])) | 110 |
| CC[C@H](C)[C@@H]1NC(=O)[C@H](C)N(C)C(=O)C[C@@H](C)NC(=O)[C@H](C2CCCC2)N(C)C(=O)C2(CCCC2)NC(=O)[C@@H]2CCCN2C(=O)[C@H](CCc2ccc(C(F)(F)F)c(Cl)c2)NC(=O)[C@@H](C)N(C)C(=O)[C@H](Cc2ccccc2Cl)N(C)C(=O)CN(C)C(=O)CN(C)C1=O [Compound 539] (cyclo([Ac5c][NMeGly(cPent)][d(β3hA)][NMeA]I[Sar][Sar][NMePhe(2-Cl)][dNMeA][hPhe(3-Cl-4-CF3)]P)) | 190 |
| CC[C@H](C)[C@@H]1NC(=O)[C@H](CC(C)C)N(C)C(=O)C[C@@H](C)NC(=O)[C@H](C(C)C)N(C)C(=O)C2(CCCC2)NC(=O)[C@@H]2CCCN2C(=O)[C@H](CCc2ccc(C(F)(F)F)c(Cl)c2)NC(=O)CN(C)C(=O)[C@H](CC2CCCCC2)N(C)C(=O)CN(C)C(=O)CN(C2CC2)C1=O [Compound 542] (cyclo([Ac5c][NMeV][d(β3hA)][NMeL]I[NcPrGly][Sar][NMeCha][Sar][hPhe(3-Cl-4-CF3)]P)) | 61 |
| CC[C@H](C)[C@@H]1NC(=O)[C@H](CC(C)C)N(C)C(=O)C[C@@H](C(=O)N2C3CCC2COC3)N(C)C(=O)[C@H]([C@@H](C)CC)N(C)C(=O)C2(CCCC2)NC(=O)[C@@H]2CCCN2C(=O)[C@H](CCc2ccc(C(F)(F)F)c(Cl)c2)NC(=O)CN(C)C(=O)[C@H](Cc2ccc(C(F)(F)F)cc2)N(C)C(=O)[C@@H]2CCN2C(=O)[C@H](C)N(C)C1=O [Compound 545] ([NMeL]I[NMeA][Aze][NMePhe(4-CF3)][Sar][hPhe(3-Cl-4-CF3)]P[Ac5c][NMeI][NMeD]-{3Oxa8azabicyclo(3.2.1)octane}; lactam N-11) | 1.1 |
| CC[C@H](C)[C@@H]1NC(=O)[C@H](C)N(C)C(=O)C[C@@H](C)NC(=O)[C@H](C2CCCC2)N(C)C(=O)C2(CCCC2)NC(=O)[C@@H]2CCCN2C(=O)[C@H](CCc2ccc(C(F)(F)F)c(Cl)c2)NC(=O)CN(C)C(=O)[C@H](Cc2ccc(Cl)cc2)N(C)C(=O)[C@@H]2CCCN2C(=O)CN(C)C1=O [Compound 549] (cyclo([Ac5c][NMeGly(cPent)][d(β3hA)][NMeA]I[Sar]P[NMePhe(4-Cl)][Sar][hPhe(3-Cl-4-CF3)]P)) | 4 |
